Source: PMC10272112 (Nature Communications, 2023)
Several values for one entry are separate records, joined by “and”; a condition that tells them apart may be missing. Equal entries are not always repeated.

Assays:
A549 cells = test: Arsenite-induced stress granule formation (G3BP1 immunofluorescence); assay type: cell-based; conditions: for arsenite-induced stress granule quantification (G3BP1), Mean / arsenite-induced stress granule quantification (G3BP1), Median / arsenite-induced stress granule quantification (G3BP1), individual values: sheet 4b; for arsenite-induced stress granule quantification (G3BP1), individual values: single data points
Description: The acetylation status of proteins can affect their macromolecular associations and the tendency of proteins to phase-separate into liquid condensates such as stress granules. […] After pre-incubation of cells with the compound, stress granule formation was induced using 30 min of arsenite treatment (1 mM). After treatment, cells were fixed for immunofluorescence detection of stress granules via the common stress granule marker protein G3BP1[21].
0.03 × 10^6 A549 cells were seeded at 4-chamber slides (Thermo, Nunc) and cultured at 37 °C overnight. Cells were treated with HDAC inhibitor SAHA and Lipoic acid or LM for 6 h, followed by 1 mM Arsenite for 30 min. Cells were fixed by 4% PFA and permeabilized by 0.5% Triton X-100/PBS. 10% Goat serum in PBS was used for blocking. After manually selecting an area with cell confluency of 50–80%, 16 pictures were taken randomly around the central point (ZEISS software in-built function). Stress granule marker G3BP1 (Aviva Systems Biology, ARP37713_T100) was visualized and quantified by ImageJ. Statistical analysis was performed with GraphPad Prism.

HeLa S3 cells = test: Global acetyl-lysine detection by Western blot; conditions: for relative lysine acetylation vs DMSO: HeLa S3, 1 mM, 16 h, replicates A/B
Description: HeLa S3 was grown in DMEM medium (PAN Biotech) supplemented with 10% FBS (PAN Biotech) and treated with drugs (final concentration of 0.1% DMSO) for indicated periods. […] The protein amount of cell lysates was determined by Bradford assay. […] Proteins were separated by SDS-PAGE and electro-transferred onto PVDF membranes. […] Acquisition and quantification of the band fluorescence intensities were carried out with the Odyssey (Licor) imaging system and corresponding software (v 3.0.29). Intensities of proteins were normalized to input beta-Actin and further normalized to the control treatments to calculate the relative acetylation change.

[1] = HeLa S3, time-dependent treatment, 5 mM

Row | Compound | arsenite-induced stress granule quantification (G3BP1), Mean (A549 cells; LM 100 uM) | arsenite-induced stress granule quantification (G3BP1), Median (A549 cells; LM 100 uM) | arsenite-induced stress granule quantification (G3BP1), individual values (A549 cells; LM 100 uM) | arsenite-induced stress granule quantification (G3BP1), Mean (A549 cells; LM 300 uM) | arsenite-induced stress granule quantification (G3BP1), Median (A549 cells; LM 300 uM) | arsenite-induced stress granule quantification (G3BP1), individual values (A549 cells; LM 300 uM) | arsenite-induced stress granule quantification (G3BP1), Mean (A549 cells; LM 1000 uM) | arsenite-induced stress granule quantification (G3BP1), Median (A549 cells; LM 1000 uM) | arsenite-induced stress granule quantification (G3BP1), individual values (A549 cells; LM 1000 uM) | effect on stress granule numbers per cell (A549 cells; pre-incubation 6 h, then 1 mM arsenite 30 min) | relative lysine acetylation vs DMSO (HeLa S3 cells; 10-12 kDa bands) | relative lysine acetylation vs DMSO (HeLa S3 cells; 14-16 kDa bands) | relative lysine acetylation vs DMSO (HeLa S3 cells; 21-23 kDa bands) | relative lysine acetylation vs DMSO (HeLa S3 cells; 24-26 kDa bands) | relative lysine acetylation vs DMSO (HeLa S3 cells; 49-51 kDa bands) | relative lysine acetylation vs DMSO (HeLa S3 cells; 65-73 kDa bands) | time of peak acetylation (HeLa S3 cells; [1]) [h] | time to upregulation of acetylation on a broad range of proteins (HeLa S3 cells; [1]) [h]
1 | NC(=O)CCCCC1CCSS1 (racemic) [(R/S)-LM, (R/S)-lipoamide] | 50.8573 | 45.1 | 71 and 31.1875 and 45 and 63.6 and 40.5 and 81.5 and 35.3333 and 36 and 53.7143 and 35.8571 and 38.125 and 41.75 and 45.1 and 52.8 and 44.3 and 63.75 and 64.7778 and 49.1818 and 58.6 and 39.7273 and 76.2 | 32.0457 | 30.3222 | 24.4375 and 30.6667 and 27.6923 and 44.9286 and 34.8 and 39.0909 and 43.75 and 27.5454 and 17.65 and 28.1111 and 42.3 and 13.75 and 29.6842 and 28.3684 and 12.875 and 35.8333 and 25.5 and 35.3077 and 30.4444 and 43.6667 and 30.2 and 36.2308 and 27.3889 and 58.875 | 21.5611 | 21.7363 | 28.8889 and 25.875 and 20.6667 and 21.6154 and 30.8182 and 26.2857 and 7.556 and 13.9375 and 25.5714 and 28 and 21.25 and 20 and 16.75 and 17 and 9.615 and 15.3 and 22.6191 and 29.6154 and 21.8571 | dose-dependent reduction of stress granule numbers per cell | – | – | – | – | – | – | – | –
2 | O=C(O)CCCCC1CCSS1 (racemic) [(R/S)-LA, (R/S)-lipoic acid] | – | – | – | – | – | – | – | – | – | – | 5.9571 and 6.0208 | 4.6853 and 4.9960 | 2.3477 and 2.3498 | 2.1045 and 2.1971 | 6.4530 and 6.1942 | 5.8639 and 5.7630 | 3 to 8 | ≤ 1
